Measured values: paper PMC10058641 (Molecular cell, 2022)

T1: COQ7 (His6-GB1-Nd38COQ7) (Homo sapiens, UniProt Q99807)
T1 sequence (Q99807 39-217): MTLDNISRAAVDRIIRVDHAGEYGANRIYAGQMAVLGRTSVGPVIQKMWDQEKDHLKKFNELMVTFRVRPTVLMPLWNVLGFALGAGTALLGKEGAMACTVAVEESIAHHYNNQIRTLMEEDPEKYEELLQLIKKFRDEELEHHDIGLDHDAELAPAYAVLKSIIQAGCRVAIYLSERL

T2: His6-Nd79COQ9 (human COQ9 residues 79-318 with an N-terminal His tag) (human, UniProt O75208 79-318)
T2 sequence (looked up): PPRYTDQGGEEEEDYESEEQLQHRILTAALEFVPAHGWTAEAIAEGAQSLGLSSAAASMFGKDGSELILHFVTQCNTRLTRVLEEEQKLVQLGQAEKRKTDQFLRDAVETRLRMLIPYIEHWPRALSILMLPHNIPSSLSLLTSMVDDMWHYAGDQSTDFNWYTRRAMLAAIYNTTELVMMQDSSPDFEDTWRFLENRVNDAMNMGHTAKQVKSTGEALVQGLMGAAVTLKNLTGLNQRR


What was measured:
COQ7 (His6-GB1-Nd38COQ7) = biological target: T1, COQ7 (His6-GB1-Nd38COQ7); assay: NADH fluorescence loss; format: biochemical; conditions: 250 uM DMQ0, 5 uM protein, 20 mM HEPES pH 7.6, 200 mM NaCl, 30 °C
[1] = biological target: T2, His6-Nd79COQ9 (human COQ9 residues …); assay: SEC + native gel or EMSA

Molecule | NADH oxidation (COQ7 (His6-GB1-Nd38COQ7)) | stoichiometry N [1]
NC(=O)C1=CN([C@@H]2O[C@H](COP(=O)(O)OP(=O)(O)OC[C@H]3O[C@@H](n4cnc5c(N)ncnc54)[C@H](O)[C@@H]3O)[C@@H](O)[C@H]2O)C=CC1 [NADH] | wild type COQ7 slowly oxidized NADH and transferred electrons to a quinone acceptor | 
GB1-Nd38COQ7 (human COQ7 residues 39-217 with N-terminal GB1 tag) (enzyme, UniProt Q99807 39-217, looked up) MTLDNISRAAVDRIIRVDHAGEYGANRIYAGQMAVLGRTSVGPVIQKMWDQEKDHLKKFNELMVTFRVRPTVLMPLWNVLGFALGAGTALLGKEGAMACTVAVEESIAHHYNNQIRTLMEEDPEKYEELLQLIKKFRDEELEHHDIGLDHDAELAPAYAVLKSIIQAGCRVAIYLSERL |  | 1
